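Growth conditions: 96-well plates. Treatment: test compound, 48 hours, 5 concentrations. Analysis: linear interpolation between bracketing concentrations; unreached endpoints set to highest concentration. TGI: total growth inhibition.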
What was measured:
Assay in all cases: NCI-60 cell line screen, 48 h
[1] = tested on: 786-0 renal
[2] = tested on: A498 renal
[3] = tested on: A549 NSCLC
[4] = tested on: ACHN renal
[5] = tested on: BT-549 breast
[6] = tested on: CAKI-1 renal
[7] = tested on: CCRF-CEM leukemia
[8] = tested on: COLO 205 colon
[9] = tested on: DU-145 prostate
[10] = tested on: EKVX NSCLC
[11] = tested on: HCC-2998 colon
[12] = tested on: HCT-116 colon
[13] = tested on: HCT-15 colon
[14] = tested on: HL-60(TB) leukemia
[15] = tested on: HOP-62 NSCLC
[16] = tested on: HOP-92 NSCLC
[17] = tested on: HS 578T breast
[18] = tested on: HT29 colon
[19] = tested on: IGROV1 ovarian
[20] = tested on: K-562 leukemia
[21] = tested on: KM12 colon
[22] = tested on: LOX IMVI melanoma
[23] = tested on: M14 melanoma
[24] = tested on: MCF7 breast
[25] = tested on: MDA-MB-231 breast
[26] = tested on: MDA-MB-435
[27] = tested on: MDA-N
[28] = tested on: MOLT-4 leukemia
[29] = tested on: NCI-H226 lung
[30] = tested on: NCI-H23 lung
[31] = tested on: NCI-H460 lung
[32] = tested on: NCI-H522 lung
[33] = tested on: NCI/ADR-RES ovarian
[34] = tested on: OVCAR-3 ovarian
[35] = tested on: OVCAR-4 ovarian
[36] = tested on: OVCAR-5 ovarian
[37] = tested on: OVCAR-8 ovarian
[38] = tested on: PC-3 prostate
[39] = tested on: RPMI-8226 leukemia
[40] = tested on: RXF 393 renal
[41] = tested on: SF-268 CNS
[42] = tested on: SF-295 CNS
[43] = tested on: SF-539 CNS
[44] = tested on: SK-MEL-2 melanoma
[45] = tested on: SK-MEL-28 melanoma
[46] = tested on: SK-MEL-5 melanoma
[47] = tested on: SK-OV-3 ovarian
[48] = tested on: SN12C renal
[49] = tested on: SNB-19 CNS
[50] = tested on: SNB-75 CNS
[51] = tested on: SR leukemia
[52] = tested on: SW-620 colon
[53] = tested on: T-47D breast
[54] = tested on: TK-10 renal
[55] = tested on: U251 CNS
[56] = tested on: UACC-257 melanoma
[57] = tested on: UACC-62 melanoma
[58] = tested on: UO-31 renal
[59] = tested on: MALME-3M melanoma

c1ccc(-c2cc(C3CO3)c3ccccc3n2)cc1 (centres undefined)
TGI [1]: 29.3 µM | TGI [2]: 39.8 µM | TGI [3]: 40.4 µM | TGI [4]: 32.8 µM | TGI [5]: 43.6 µM | TGI [6]: 47.9 µM | TGI [7]: > 100 µM | TGI [8]: 37.4 µM | TGI [9]: 34.7 µM | TGI [10]: 34.1 µM | TGI [11]: 35.2 µM | TGI [12]: 30.2 µM | TGI [13]: 40.7 µM | TGI [14]: 63.7 µM | TGI [15]: 67.5 µM | TGI [16]: 39.2 µM | TGI [17]: 83.9 µM | TGI [18]: 35.8 µM | TGI [19]: 36.6 µM | TGI [20]: 93.1 µM | TGI [21]: 33 µM | TGI [22]: 34.1 µM | TGI [23]: 34.2 µM | TGI [24]: 47.8 µM | TGI [25]: 51.7 µM | TGI [26]: 35.5 µM | TGI [27]: 39.4 µM | TGI [28]: 49.7 µM | TGI [29]: 43.1 µM | TGI [30]: 37.5 µM | TGI [31]: 39.1 µM | TGI [32]: 14.6 µM | TGI [33]: 57.6 µM | TGI [34]: 33.7 µM | TGI [35]: 37.2 µM | TGI [36]: 40.5 µM | TGI [37]: 43.2 µM | TGI [38]: 41.2 µM | TGI [39]: 58.1 µM | TGI [40]: 28.3 µM | TGI [41]: 47.3 µM | TGI [42]: > 100 µM | TGI [43]: 56.7 µM | TGI [44]: 34.6 µM | TGI [45]: > 100 µM | TGI [46]: 31.4 µM | TGI [47]: > 100 µM | TGI [48]: 31.3 µM | TGI [49]: 95.5 µM | TGI [50]: 62.6 µM | TGI [51]: 45.3 µM | TGI [52]: 71.3 µM | TGI [53]: 65.8 µM | TGI [54]: 53.4 µM | TGI [55]: 30 µM | TGI [56]: 42.7 µM | TGI [57]: 33.7 µM | TGI [58]: 3.51 µM

CC(=O)O[C@H]1CC[C@@]2(C)C(=CC[C@@H]3[C@@H]2CC[C@]2(C)Nc4c(cnn4S(C)(=O)=O)C[C@@H]32)C1
TGI [2]: > 100 µM | TGI [5]: 72.5 µM | TGI [6]: > 100 µM | TGI [7]: > 100 µM | TGI [8]: > 100 µM | TGI [9]: > 100 µM | TGI [11]: > 100 µM | TGI [13]: > 100 µM | TGI [14]: 71.3 µM | TGI [15]: > 100 µM | TGI [16]: > 100 µM | TGI [17]: > 100 µM | TGI [18]: 57 µM | TGI [19]: > 100 µM | TGI [20]: > 100 µM | TGI [21]: > 100 µM | TGI [23]: 75.2 µM | TGI [59]: > 100 µM | TGI [24]: > 100 µM | TGI [25]: > 100 µM | TGI [26]: > 100 µM | TGI [27]: > 100 µM | TGI [28]: 47.4 µM | TGI [29]: > 100 µM | TGI [30]: > 100 µM | TGI [31]: > 100 µM | TGI [32]: > 100 µM | TGI [33]: > 100 µM | TGI [34]: > 100 µM | TGI [36]: > 100 µM | TGI [37]: > 100 µM | TGI [38]: > 100 µM | TGI [39]: > 100 µM | TGI [40]: 92.2 µM | TGI [42]: > 100 µM | TGI [44]: > 100 µM | TGI [45]: > 100 µM | TGI [46]: 30.6 µM | TGI [47]: > 100 µM | TGI [48]: > 100 µM | TGI [49]: > 100 µM | TGI [50]: > 100 µM | TGI [51]: > 100 µM | TGI [53]: > 100 µM | TGI [55]: > 100 µM | TGI [57]: > 100 µM | TGI [58]: > 100 µM

O=C(O)[C@@H]1CCC(=O)N1C(c1ccc2c(c1)OCO2)c1ccc2c(c1)OCO2
TGI [1]: > 100 µM | TGI [2]: > 100 µM | TGI [3]: > 100 µM | TGI [4]: > 100 µM | TGI [5]: > 100 µM | TGI [6]: > 100 µM | TGI [8]: > 100 µM | TGI [9]: > 100 µM | TGI [10]: > 100 µM | TGI [11]: > 100 µM | TGI [12]: > 100 µM | TGI [13]: > 100 µM | TGI [14]: > 100 µM | TGI [15]: > 100 µM | TGI [16]: > 100 µM | TGI [17]: > 100 µM | TGI [18]: > 100 µM | TGI [19]: > 100 µM | TGI [20]: > 100 µM | TGI [21]: > 100 µM | TGI [22]: > 100 µM | TGI [23]: > 100 µM | TGI [59]: > 100 µM | TGI [24]: > 100 µM | TGI [25]: > 100 µM | TGI [26]: > 100 µM | TGI [27]: > 100 µM | TGI [28]: > 100 µM | TGI [29]: > 100 µM | TGI [30]: > 100 µM | TGI [31]: > 100 µM | TGI [32]: > 100 µM | TGI [33]: > 100 µM | TGI [34]: > 100 µM | TGI [35]: > 100 µM | TGI [36]: > 100 µM | TGI [37]: > 100 µM | TGI [38]: > 100 µM | TGI [39]: > 100 µM | TGI [41]: > 100 µM | TGI [42]: > 100 µM | TGI [43]: > 100 µM | TGI [44]: > 100 µM | TGI [45]: > 100 µM | TGI [46]: > 100 µM | TGI [48]: > 100 µM | TGI [49]: > 100 µM | TGI [50]: > 100 µM | TGI [51]: > 100 µM | TGI [52]: > 100 µM | TGI [53]: > 100 µM | TGI [54]: > 100 µM | TGI [55]: > 100 µM | TGI [56]: > 100 µM | TGI [57]: > 100 µM | TGI [58]: > 100 µM

O=C1C(c2c(O)[nH]c3ccc(S(=O)(=O)O)cc23)=Nc2ccc(Br)cc21
TGI [1]: > 100 µM | TGI [2]: > 100 µM | TGI [3]: > 100 µM | TGI [4]: > 100 µM | TGI [5]: > 100 µM | TGI [6]: > 100 µM | TGI [7]: > 100 µM | TGI [8]: > 100 µM | TGI [9]: > 100 µM | TGI [10]: > 100 µM | TGI [11]: > 100 µM | TGI [12]: > 100 µM | TGI [13]: > 100 µM | TGI [14]: > 100 µM | TGI [15]: > 100 µM | TGI [16]: > 100 µM | TGI [17]: > 100 µM | TGI [18]: > 100 µM | TGI [19]: > 100 µM | TGI [20]: > 100 µM | TGI [21]: > 100 µM | TGI [22]: > 100 µM | TGI [23]: > 100 µM | TGI [59]: > 100 µM | TGI [24]: > 100 µM | TGI [25]: > 100 µM | TGI [26]: > 100 µM | TGI [27]: > 100 µM | TGI [28]: > 100 µM | TGI [29]: > 100 µM | TGI [30]: > 100 µM | TGI [31]: > 100 µM | TGI [32]: > 100 µM | TGI [33]: > 100 µM | TGI [34]: > 100 µM | TGI [35]: > 100 µM | TGI [36]: > 100 µM | TGI [37]: > 100 µM | TGI [38]: > 100 µM | TGI [39]: > 100 µM | TGI [40]: > 100 µM | TGI [41]: > 100 µM | TGI [42]: > 100 µM | TGI [44]: > 100 µM | TGI [45]: > 100 µM | TGI [46]: > 100 µM | TGI [47]: > 100 µM | TGI [48]: > 100 µM | TGI [49]: > 100 µM | TGI [50]: > 100 µM | TGI [51]: > 100 µM | TGI [52]: > 100 µM | TGI [53]: > 100 µM | TGI [54]: > 100 µM | TGI [55]: > 100 µM | TGI [56]: > 100 µM | TGI [57]: > 100 µM | TGI [58]: > 100 µM
